Source: PMC12948427 (The Journal of Clinical Investigation, 2025)
Values joined by “and” are separate entries in the source; they are usually repeats but may differ in a detail not shown here. Identical values can stand only once. Like-named read-outs stand apart in the source and are kept apart here.

Experiments:
[1] = molecular target: T1, hHgs 1-390 protein (Homo sapiens, UniProt O14964)
[2] = system: 17Cl-1 cells
[3] = system: MHV
[4] = molecular target: T1, hHgs 1-390 protein; experiment: biochemical

T1 sequence (O14964 1-390): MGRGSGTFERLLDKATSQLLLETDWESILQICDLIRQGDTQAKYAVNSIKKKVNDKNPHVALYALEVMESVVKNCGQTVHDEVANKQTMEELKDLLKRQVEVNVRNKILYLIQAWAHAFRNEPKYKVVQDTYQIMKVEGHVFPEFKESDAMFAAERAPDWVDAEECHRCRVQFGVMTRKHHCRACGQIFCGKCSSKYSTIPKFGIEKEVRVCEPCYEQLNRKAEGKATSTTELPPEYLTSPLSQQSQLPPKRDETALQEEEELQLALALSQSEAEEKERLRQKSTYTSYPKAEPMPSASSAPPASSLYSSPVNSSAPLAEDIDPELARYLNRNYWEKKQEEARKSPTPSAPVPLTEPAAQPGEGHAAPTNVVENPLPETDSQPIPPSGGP

Structure (SMILES)	Polarization ([1]; 0.00610352 uM)	Polarization ([1]; 0.0244141 uM)	Polarization ([1]; 0.0976562 uM)	Polarization ([1]; 0.390625 uM)	Polarization ([1]; 1.5625 uM)	Polarization ([1]; 6.25 uM)	cell viability, Figures S9A, B, D-F ([2]; concentration 0.01)	cell viability, Figures S9A, B, D-F ([2]; concentration 0.03)	cell viability, Figures S9A, B, D-F ([2]; concentration 0.1)	cell viability, Figures S9A, B, D-F ([2]; concentration 0.3)	cell viability, Figures S9A, B, D-F ([2]; concentration 1)	cell viability, Figures S9A, B, D-F ([2]; concentration 3)	cell viability, Figures S9A, B, D-F ([2]; concentration 10)	cell viability, Figures S9A, B, D-F ([2]; concentration 25)	viability of infected cells (rescue of cytopathic effect), Figures S9G-L ([3]; concentration 10)	viability of infected cells (rescue of cytopathic effect), Figures S9G-L ([3]; concentration 30)	viability of infected cells (rescue of cytopathic effect), Figures S9G-L ([3]; concentration 100)	viability of infected cells (rescue of cytopathic effect), Figures S9G-L ([3]; concentration 300)	viability of infected cells (rescue of cytopathic effect), Figures S9G-L ([3]; concentration 1000)	viability of infected cells (rescue of cytopathic effect), Figures S9G-L ([3]; concentration 3000)	also measured
COc1cc(OC)c2ccc(=O)oc2c1 [Citropten, citropten]	144	145 and 146	135 and 136	119 and 129	75 and 87	26 and 35	100	100	100	100	100	100	100	100 and 98.7013 and 97.6623	49.655 and 47.1823 and 44.4221	48.2749 and 46.3772 and 44.6233	44.4221 and 42.6394 and 45.4572	47.7573 and 43.5308 and 44.5946	47.3548 and 44.7384 and 49.3099	49.77 and 48.2461 and 50.575	viability of infected cells (rescue of cytopathic effect), Figures S9G-L ([3]; concentration 10000): 55.1466 and 56.7568; viability of infected cells (rescue of cytopathic effect), Figures S9G-L ([3]; concentration 25000): 67.4813 and 66.8775 and 68.0851; IC50 [4]: 2170 nM
CC1=NN(c2ccc(C)c(C)c2)C(=O)/C1=N\Nc1cccc(-c2cccc(C(=O)O)c2)c1O [Eltrombopag, eltrombopag]	143 and 142	147 and 141	143 and 140	145 and 149	107 and 109	80 and 76	104.545 and 104.221	100.327 and 102.614 and 102.288	99.1416 and 102.682 and 102.039	104.867 and 102.544 and 103.872	103.708 and 104.035	104.491 and 102.191 and 102.848	96.1957 and 94.8913 and 95.2174	58.804 and 63.1229 and 62.4585	40.6593 and 41.7582 and 41.3919	46.1538 and 47.2527 and 46.5201	46.1538 and 47.619 and 44.6886	42.4908 and 43.956 and 41.7582	41.3919 and 43.5897 and 40.6593	40.293 and 41.7582	Polarization ([1]; 25 uM): 89; viability of infected cells (rescue of cytopathic effect), Figures S9G-L ([3]; concentration 10000): 45.0549 and 44.3223 and 43.5897; viability of infected cells (rescue of cytopathic effect), Figures S9G-L ([3]; concentration 25000): 23.7729 and 23.8095 and 24.0659; IC50 [4]: 1520 nM
CCOc1ccc2nc3cc(N)ccc3c(N)c2c1 [Ethacridine lactate, ethacridine lactate]	140 and 149	140 and 144	143	137 and 141	134 and 136	102 and 105	101.299 and 101.948 and 102.597	100.98 and 101.961 and 102.614	100.429 and 99.7854 and 102.039	100.553 and 101.217	103.053 and 102.399 and 103.381	103.176 and 101.862 and 103.834	96.1957 and 98.8043	30.7973 and 30.3654 and 31.5947	29.3773 and 29.6337 and 29.1575	34.9451 and 36.63 and 36.4103	33.0403 and 35.0549 and 36.2271	32.8571 and 32.6374 and 34.6886	32.4176 and 32.0513 and 35.0916	33.0037 and 32.1612 and 34.9817	Polarization ([1]; 25 uM): 73 and 70; Polarization ([1]; 100 uM): 68 and 66; viability of infected cells (rescue of cytopathic effect), Figures S9G-L ([3]; concentration 10000): 41.7582 and 41.0256 and 40.6593; viability of infected cells (rescue of cytopathic effect), Figures S9G-L ([3]; concentration 25000): 8.462 and 8.5348 and 8.278; IC50 [4]: 7140 nM
